US7094911B2, “Biphenyl and biphenyl-analogous compounds as integrin antagonists” (Bayer Aktiengesellschaft, priority 1998, dated 2006)

SMILES	melting point
Cc1cc(C)c(S(=O)(=O)N[C@@H](Cc2ccc(-c3cccc(N/C(=N/C#N)NCc4ccccn4)c3)cc2)C(=O)O)c(C)c1 [Example 10.9]	174 °C (dec.)
O=C(O)CC(NS(=O)(=O)c1cccc(-c2cccc(Nc3c(NCc4ccccn4)c(=O)c3=O)c2)c1)c1ccccc1 (stereo not shown) [Example 13.8]	149 °C (dec.)
Cc1cc(C)c(S(=O)(=O)N[C@@H](Cc2ccc(-c3cccc(NC(=O)NCCSC(F)(F)F)c3)cc2)C(=O)O)c(C)c1 [Example 1.207]	138 °C
Cc1cc(C)c(S(=O)(=O)NC(Cc2cccc(-c3ccc(NC(=O)Nc4ccncc4)cc3)c2)C(=O)O)c(C)c1 (stereo not shown) [Example 1.201]	188 °C
CC1(C)[C@H]2CCC1(CS(=O)(=O)N[C@@H](Cc1ccc(-c3cccc(NC4=C(NC5CC5)C(=O)C4O)c3)cc1)C(=O)O)C(=O)C2 (stereo partly shown) [Example 13.5]	152 °C
N#C/N=C(/Nc1cccc(-c2cccc(S(=O)(=O)NC(CC(=O)O)c3ccccc3)c2)c1)NC1CC1 (stereo not shown) [Example 10.3.5, 3-[(3′-{[(cyclopropylamino)(cyanoimino)methyl]amino}[1,1′-biphenyl]-3-yl)sulfonylamino]-3-phenyl-propanoic acid]	120 °C
Cc1cc(C)c(S(=O)(=O)N[C@@H](Cc2ccc(-c3cccc(NC(=O)Nc4nc5ccccc5s4)c3)cc2)C(=O)O)c(C)c1 [Example 1.197]	198 °C
COc1ccc(-c2cccc(NC(=O)NC3CC3)c2)cc1S(=O)(=O)NCC(=O)O [Example 4.77]	128 °C
Cc1cc(C)c(S(=O)(=O)N[C@@H](Cc2ccc(-c3cccc(N)c3)cc2)C(=O)O)c(C)c1 [Example 1.205]	289 °C
COc1ccc(-c2ccc(NC(=O)NCCc3ccccn3)cc2)cc1S(=O)(=O)NC(CC(=O)O)c1ccccc1 (stereo not shown) [Example 4.64]	137 °C
COc1ccc2[nH]/c(=N\C(=O)Nc3cccc(-c4ccc(C[C@H](NS(=O)(=O)c5c(C)cc(C)cc5C)C(=O)O)cc4)c3)[nH]c2c1 [Example 1.188]	215 °C
O=C(O)CC(NS(=O)(=O)c1cccc(-c2cccc(Nc3nccs3)c2)c1)c1ccccc1 (stereo not shown) [Example 15.1.2, 3-phenyl-3-{[3′-(1,3-thiazol-2-ylamino)[1,1′-biphenyl]-3-yl]sulfonylamino}-propanoic acid]	130 °C (dec.)
O=C(O)CC(NS(=O)(=O)c1cccc(-c2cccc(Nc3c(Nc4nc5ccccc5[nH]4)c(=O)c3=O)c2)c1)c1ccccc1 (stereo not shown) [Example 13.6]	191 °C (dec.)
CN(CC(=O)O)S(=O)(=O)c1cccc(-c2cccc(NC(=O)Nc3ccncc3)c2)c1 [Example 6.14]	142 °C
COc1ccc(-c2cccc(NC(=O)Nc3nccs3)c2)cc1S(=O)(=O)NC(CC(=O)O)c1ccccc1 (stereo not shown) [Example 4.99]	> 240 °C
Cc1cc(C)c(S(=O)(=O)N[C@@H](Cc2ccc(-c3cccc(CNc4nc5ccccc5[nH]4)c3)cc2)C(=O)O)c(C)c1 [Example 18.4]	> 240 °C
CC1(C)[C@H]2CCC1(CS(=O)(=O)N[C@@H](Cc1ccc(-c3cccc(N/C(=N/C#N)NC4CC4)c3)cc1)C(=O)O)C(=O)C2 [Example 10.5]	178 °C
CCCCNC(=O)Nc1cccc(-c2ccc(OC)c(S(=O)(=O)NC(CC(=O)O)c3ccccc3)c2)c1 (stereo not shown) [Example 4.63]	190 °C
COc1ccc(-c2ccc(NC(=O)N=c3[nH]c4ccccc4[nH]3)cc2)cc1S(=O)(=O)NC(CC(=O)O)c1ccccc1 (stereo not shown) [Example 4.74]	209 °C
C#CCN/C(=C\[N+](=O)[O-])Nc1cccc(-c2ccc(C[C@H](NS(=O)(=O)CC34CC[C@@H](CC3=O)C4(C)C)C(=O)O)cc2)c1 [Example 12.6]	185 °C (dec.)
COc1ccc(-c2ccc(NC(=O)NCc3cccnc3)cc2)cc1S(=O)(=O)NC(CC(=O)O)c1ccccc1 (stereo not shown) [Example 4.67]	161 °C
CC1(C)[C@H]2CCC1(CS(=O)(=O)N[C@@H](Cc1ccc(-c3cccc(N/C(=C/[N+](=O)[O-])NCc4cccnc4)c3)cc1)C(=O)O)C(=O)C2 [Example 12.8]	170 °C
